Data taken from patent US20230226072A1 (priority 2020, published 2023).

Assays:
Influenza A N1H1 = assay: In vivo antiviral efficacy in Balb/c mice, lung virus titer by TCID50 assay
Experimental: Mice received a daily MB-dose of 5 mg/kg based on a daily drinking volume of ˜5-6 ml and a body weight of 25-35 g. The control group received drinking water with saccharin but without methylene blue.
Mice were euthanized and lungs were removed on day 3 post challenge with influenza H1N1 virus. These tissue samples were stored at <−60° C. until they were transferred into homogenization tubes containing 1 ml cell medium supplemented with antibiotics. The lungs were homogenized two times at 5000 rpm for twenty seconds with 10 seconds pause between the intervals with a tissue homogenizer. The infectious H1N1 virus titer in homogenized lung samples was determined by a TCID50 assay performed by titration on Madin-Darby Canine Kidney (MDCK) cells as described above.

[1] = in vivo; cited from earlier work

SMILES: CN(C)c1ccc2nc3ccc(=[N+](C)C)cc-3sc2c1.[Cl-] [methylene blue, [7-(dimethylamino)phenothiazin-3-ylidene]-dimethylazanium; chloride]
- viricidal efficacy, lung virus titer (TCID50 assay) (Influenza A N1H1; prophylactic application, 5 mg/kg daily in drinking water from day 0, challenge day 10, lungs 3 days later): significant viricidal efficacy
- viricidal efficacy, lung virus titer (TCID50 assay) (Influenza A N1H1; therapeutic application, 5 mg/kg daily in drinking water from day 11, challenge day 10): significant viricidal efficacy

SMILES: Cc1cc2nc3c(=O)[nH]c(=O)nc-3n(C[C@H](O)[C@H](O)[C@H](O)CO)c2cc1C [riboflavin, 7,8-dimethyl-10-[(2S,3S,4R)-2,3,4,5-tetrahydroxypentyl]benzo[g]pteridine-2,4-dione]
- initial half-life [1]: 1.4 h
- terminal half-life [1]: 14 h
